Test results reported in patent publication US8168659B2, “1, 5-diphenyl-3-benzylamino-1, 5-dihydropyrrolidin-2-one as CB1 receptor modulators” (Eli Lilly and Company, priority 2006, dated 2012).
Counter-ions that a name gives are not always drawn. Like-named read-outs stand apart in the source and are kept apart here.

Columns and labels:
Bioavailability dog = assay type: in vivo
Source text: (§1) Methods for accessing bioavailabilty are well appreciated in the art. One such reference is Medicinal Research Reviews Vol 21 No. 5 382-396 (2001).

Bioavailability rat = assay type: in vivo
Source text: as §1

hCB1 [1] = target: T1, hCB1 (Homo sapiens, UniProt P21554); assay: hCB1 SPA GTPγ35S Sf9 membranes, antagonist; assay type: biochemical; set-up: purchased Applied Cell Sciences, Gaithersburg, Md; PerkinElmer Life Sciences, Boston, Mass; host or cells: Sf9 insect cells (recombinant expression), membranes; conditions: hCB1 SPA GTPγ35S Sf9 Mem 22.7 ug protein/well Antagonist; read-out: Inverse Agonist Potency CB1 (Kb)
T1 sequence (P21554 whole entry): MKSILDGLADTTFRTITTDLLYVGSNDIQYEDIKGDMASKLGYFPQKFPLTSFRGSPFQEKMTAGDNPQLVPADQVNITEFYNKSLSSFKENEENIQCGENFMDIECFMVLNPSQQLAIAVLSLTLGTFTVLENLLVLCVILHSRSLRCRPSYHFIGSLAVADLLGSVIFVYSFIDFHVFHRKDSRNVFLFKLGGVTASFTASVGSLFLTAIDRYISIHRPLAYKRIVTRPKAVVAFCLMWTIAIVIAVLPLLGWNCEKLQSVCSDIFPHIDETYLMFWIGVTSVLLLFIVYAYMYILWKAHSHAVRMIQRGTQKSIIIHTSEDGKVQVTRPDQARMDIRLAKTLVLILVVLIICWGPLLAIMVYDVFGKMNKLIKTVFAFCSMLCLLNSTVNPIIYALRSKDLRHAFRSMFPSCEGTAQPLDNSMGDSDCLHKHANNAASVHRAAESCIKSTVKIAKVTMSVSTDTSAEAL
Experimental: (§2) Antibody-Capture SPA GTP-γ-^35S Binding
(§3) Test exemplified compounds. Measure GTP-γ^35S binding in a 96 well format using a modified antibody capture technique previously described (DeLapp et al. 1999). […] Perform antagonist dose responses in the presence of a saturating dose of full agonist (methanandamide). Add a mixture containing 0.27% Nonidet P40 detergent (Roche, Indianapolis, Ind.), anti-Gi antibody (final dilution of 1:300; Covance, Princeton, N.J.), and 1.25 mg anti-rabbit antibody scintillation proximity assay beads (GE Healthcare, Piscataway, N.J.) and seal the plates and incubate for an additional 3 hours. Centrifuge the plates at 700×g for 10 minutes using a Beckman GS-6R centrifuge and count for 1 minute per well using a Wallac MicroBeta TriLux scintillation counter (PerkinElmer, Boston, Mass.).
(§4) To analyze data, first subtract background from all wells. Determine percent agonist efficacy by normalizing agonist/inverse agonist dose response data to a full agonist (methanandamide) response. Calculating antagonist percent inhibition data by normalizing to results generated with a saturating concentration of methanandamide. Analyze the data using a 4-parameter logistic reduced fit with Activity Base and XLFit3 (IDBS, Emeryville, Calif.). Determine Kb values using a modification of the Cheng-Prusoff relationship: Kb=IC50/(1+[agonist]/EC50) where IC50 is determined from a four parameter fit of displacement curves, [agonist]=EC50 of full agonist, and EC50 is determined from a four parameter fit of a full agonist concentration response curve (Cheng and Prusoff 1973). Calculate mean Kb values as a mean of at least three independent determinations±standard error of the mean (SEM).

Human CB2 [2] = target: T2, Human CB2 (Homo sapiens, UniProt P34972); assay: Antibody-capture SPA GTP-γ-35S binding, antagonist/inverse agonist, Sf9 cell membranes; assay type: biochemical
T2 construct: purchased Applied Cell Sciences, Gaithersburg, Md; PerkinElmer Life Sciences, Boston, Mass; host or cells: Sf9 insect cells (recombinant expression), membranes
T2 sequence (P34972 whole entry): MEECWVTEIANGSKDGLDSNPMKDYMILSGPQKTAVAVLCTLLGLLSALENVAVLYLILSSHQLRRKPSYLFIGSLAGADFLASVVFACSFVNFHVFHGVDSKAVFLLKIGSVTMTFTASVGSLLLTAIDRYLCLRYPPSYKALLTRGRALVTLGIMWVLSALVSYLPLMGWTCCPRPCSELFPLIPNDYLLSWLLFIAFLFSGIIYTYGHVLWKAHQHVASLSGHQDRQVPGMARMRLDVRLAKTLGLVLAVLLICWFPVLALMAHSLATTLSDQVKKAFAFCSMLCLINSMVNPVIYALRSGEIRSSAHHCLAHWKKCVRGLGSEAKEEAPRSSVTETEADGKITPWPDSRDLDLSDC
Experimental: as §2
(§5) Test exemplified compounds. Measure GTP-γ^35S binding in a 96 well format using a modified antibody capture technique previously described (DeLapp et al. 1999). Briefly incubate, CHO or Sf9 cell membranes expressing CB1 or CB2, respectively (Applied Cell Sciences, Gaithersburg, Md.; PerkinElmer Life Sciences, Boston, Mass.); prepare as previously described (DeLapp et al., 1999), exemplified compounds and […] GTP-γ-^35S (PerkinElmer Life Sciences, Boston, Mass.) for 30 minutes (incubate all at room temperature) in GTP-binding assay buffer (20 mM Hepes, 100 mM NaCl, 5 mM MgCl2, pH 7.4). Perform antagonist dose responses in the presence of a saturating dose of full agonist (methanandamide). Add a mixture containing 0.27% Nonidet P40 detergent (Roche, Indianapolis, Ind.), anti-Gi antibody (final dilution of 1:300; Covance, Princeton, N.J.), and 1.25 mg anti-rabbit antibody scintillation proximity assay beads (GE Healthcare, Piscataway, N.J.) and seal the plates and incubate for an additional 3 hours. Centrifuge the plates at 700×g for 10 minutes using a Beckman GS-6R centrifuge and count for 1 minute per well using a Wallac MicroBeta TriLux scintillation counter (PerkinElmer, Boston, Mass.).
as §4

NIH-Swiss mice = assay: Forced swim test (FST); assay type: in vivo; conditions: minimum effective dose, decrease in immobility time
Experimental: Receive NIH male Swiss mice (Harlan Sprague-Dawley, weigh 20-25 g) 7-10 days prior to testing. House 12 mice/cage. Test animals that weigh 25-30 g. On the day of test, bring animals to the testing room at least 1 hr prior to dosing, when doing starts, 6-8 min. intervals between each dosing with mouse receiving either vehicle or exemplified compounds by p.o., and then put it into a clean cage afterwards (4 mice/cage). Depending on pretreatment time, start the test accordingly.
Mice FST: Place NIH-Swiss mice in clear plastic cylinders (diameter: 10 cm; height: 25 cm) filled to 6 cm with 22-25° C. water for six min. Record the duration of immobility during the last 4 min. of the six-minute trial. A mouse is regarded as immobile when floating motionless or making only those movements necessary to keep its head above the water.
Copy the data-immobility (second) into JMP data sheet, and analyze by ANOVA-Dunnett's test. Record the minimum effective dose (MED) as the lowest dose of compound at which statistically significant decrease in immobility time is observed versus a vehicle control.

hCB1 [3] = target: T1, hCB1; assay: Agonist GTP-binding, Sf9 membranes; assay type: biochemical; set-up: purchased Applied Cell Sciences, Gaithersburg, Md; PerkinElmer Life Sciences, Boston, Mass; host or cells: Sf9 insect cells (recombinant expression), membranes
Experimental: as §2, §3, §4

Human CB2 [4] = target: T2, Human CB2; assay: Agonist GTP-binding, Sf9 membranes; assay type: biochemical
Experimental: as §2
Test exemplified compounds. Measure GTP-γ^35S binding in a 96 well format using a modified antibody capture technique previously described (DeLapp et al. 1999). Briefly incubate, CHO or Sf9 cell membranes expressing CB1 or CB2, respectively (Applied Cell Sciences, Gaithersburg, Md.; PerkinElmer Life Sciences, Boston, Mass.); prepare as previously described (DeLapp et al., 1999), exemplified compounds and […] GTP-γ-^35S (PerkinElmer Life Sciences, Boston, Mass.) for 30 minutes (incubate all at room temperature) in GTP-binding assay buffer (20 mM Hepes, 100 mM NaCl, 5 mM MgCl2, pH 7.4). Perform antagonist dose responses in the presence of a saturating dose of full agonist (methanandamide). […]
To analyze data, first subtract background from all wells. […] Determine Kb values using a modification of the Cheng-Prusoff relationship: Kb=IC50/(1+[agonist]/EC50) where IC50 is determined from a four parameter fit of displacement curves, [agonist]=EC50 of full agonist, and EC50 is determined from a four parameter fit of a full agonist concentration response curve (Cheng and Prusoff 1973). […]

Rat CB1 = target: T3, Rat CB1 (Rattus norvegicus, UniProt P20272); assay: Antibody-capture SPA GTP-γ-35S binding, antagonist/inverse agonist, CHO cell membranes; assay type: biochemical
T3 construct: purchased Applied Cell Sciences, Gaithersburg, Md; PerkinElmer Life Sciences, Boston, Mass; host or cells: CHO cells (recombinant expression), membranes
T3 sequence (P20272 whole entry): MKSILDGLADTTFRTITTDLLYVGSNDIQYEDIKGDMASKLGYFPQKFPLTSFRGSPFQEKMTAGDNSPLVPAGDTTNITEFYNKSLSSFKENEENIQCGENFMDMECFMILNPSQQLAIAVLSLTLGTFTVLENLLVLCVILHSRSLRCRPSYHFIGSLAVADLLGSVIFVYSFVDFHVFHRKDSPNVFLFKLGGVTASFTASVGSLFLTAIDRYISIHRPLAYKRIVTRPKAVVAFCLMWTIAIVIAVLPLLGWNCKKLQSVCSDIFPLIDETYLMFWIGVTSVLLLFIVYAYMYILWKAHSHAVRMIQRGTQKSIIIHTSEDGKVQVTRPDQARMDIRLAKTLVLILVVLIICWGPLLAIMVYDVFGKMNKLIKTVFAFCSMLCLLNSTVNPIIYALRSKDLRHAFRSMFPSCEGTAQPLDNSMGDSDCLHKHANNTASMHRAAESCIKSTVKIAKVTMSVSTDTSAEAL
Experimental: as §2, §5, §4

hCB1 [5] = target: T1, hCB1; assay: as above; assay type: biochemical
Experimental: as §2, §5, §4

[6] = Antibody-capture SPA GTP-γ-35S binding, human CB2, read-out: Inverse Agonist Potency CB2 (Kb)

SMILES | Bioavail. Dog (Bioavailability dog) [%] | Bioavail. Rat (Bioavailability rat) [%] | Kb (hCB1 [1]) [nM] | Kb (Human CB2 [2]; [6]) [nM] | other results
Cc1cccc([C@H]2C[C@@H](NC(C)(C)c3ccc(C(F)(F)F)nc3)C(=O)N2c2ccc(OC(F)(F)F)cc2)c1 [Example 1, (3R,5R)-3-[1-Methyl-1-(6-trifluoromethyl-pyridin-3-yl)-ethylamino]-5-(m-tolyl)-1-(4-trifluoromethoxy-phenyl)-pyrrolidin-2-one tosylate] | 36 | 7 | 0.91 | 390 | –
CC(C)(N[C@@H]1C[C@H](c2cccc(OC(F)(F)C(F)F)c2)N(c2ccc(Cl)cc2)C1=O)c1ccc(C(F)(F)F)nc1 [Example 41, (3R,5R)-3-[1-Methyl-1-(6-trifluoromethyl-pyridin-3-yl)-ethylamino]-5-[3-(1,1,2,2-tetrafluoro-ethoxy)-phenyl]-1-(4-chloro-phenyl)-pyrrolidin-2-one] | 47 | 36 | 0.91 | > 14200 | –
CC(F)(F)c1cccc([C@H]2C[C@@H](NC(C)(C)c3ccc(C(F)(F)F)nc3)C(=O)N2c2ccc(OC(F)(F)F)cc2)c1 [Example 32B, (3R,5R)-3-[1-Methyl-1-(6-trifluoromethyl-pyridin-3-yl)-ethyl-amino]-5-[3-(1,1-difluoro-ethyl)-phenyl]-1-(4-trifluoromethoxy-phenyl)-pyrrolidin-2-one] | – | – | 2.38 | > 4000 | –
CC(C)(N[C@@H]1C[C@H](c2cccc(OC(F)(F)C(F)F)c2)N(c2ccc(C(F)(F)F)cc2)C1=O)c1ccc(C(F)(F)F)nc1 [Example 40, (3R,5R)-3-[1-Methyl-1-(6-trifluoromethyl-pyridin-3-yl)-ethylamino]-5-[3-(1,1,2,2-tetrafluoro-ethoxy)-phenyl]-1-(4-trifluoromethyl-phenyl)-pyrrolidin-2-one] | 38 | 77 | 0.71 | > 6900 | –
CC(C)(N[C@@H]1C[C@H](c2ccccc2)N(c2ccc(OC(F)(F)F)cc2)C1=O)c1ccc(C(F)(F)F)nc1.Cc1ccc(S(=O)(=O)O)cc1 [Example 49, (3R,5R)-3-[1-Methyl-1-(6-trifluoromethyl-pyridin-3-yl)-ethylamino]-5-phenyl-1-(4-trifluoromethoxy-phenyl)-pyrrolidin-2-one tosylate] | 40 | 36 | 2.6 | – | Forced Swim Test (MED, mg/kg, po) (NIH-Swiss mice): 3 mg/kg; Agonist Efficacy % (hCB1 [3]; Human CB1, Sf9 membranes, normalized to full agonist methanandamide): −38.3 ± 1.0%; EC50 (hCB1 [3]; Human CB1, Sf9 membranes, read-out: Agonist Potency EC50): 0.81 ± 0.19 nM; agonist efficacy at the human CB1 receptor (inverse agonism), in words (hCB1 [3]; human CB1, basal constitutive activity): less than zero; Agonist Efficacy % (Human CB2 [4]; normalized to full agonist methanandamide): 0%; EC50 (Human CB2 [4]; read-out: Agonist Potency EC50): > 10000 nM; Kb (Rat CB1; Rat CB1 (CHO cells), GTP binding, mean ± SEM, read-out: Inverse Agonist Potency [Kb (nM)]): 0.264 ± 0.02 nM; CB1 antagonism/inverse agonism, in words (Rat CB1; rat CB1 receptors): potent; Kb (hCB1 [5]; Human CB1 (CHO cells), GTP binding, mean ± SEM, read-out: Inverse Agonist Potency [Kb (nM)]): 0.226 ± 0.01 nM; CB1 antagonism/inverse agonism, in words (hCB1 [5]; human CB1 receptors): potent; Kb (Human CB2 [2]; Human CB2 (Sf9 cells), GTP binding, mean ± SEM, read-out: Inverse Agonist Potency [Kb (nM)]): 587 ± 191 nM; CB2 antagonism, in words (Human CB2 [2]; human CB2 receptors): low antagonism
CC(C)(N[C@H]1C[C@@H](c2ccccc2)N(c2ccc(OC(F)(F)F)cc2)C1=O)c1ccc(C(F)(F)F)nc1 [Example 4, (3S,5S)-3-[1-Methyl-1-(6-trifluoromethyl-pyridin-3-yl)-ethylamino]-5-phenyl-1-(4-trifluoromethoxy-phenyl)-pyrrolidin-2-one tosylate] | – | – | 107 | > 7230 | –
CC(C)(N[C@H]1C[C@H](c2ccccc2)N(c2ccc(OC(F)(F)F)cc2)C1=O)c1ccc(C(F)(F)F)nc1 [Example 44, (3S,5R)-3-[1-Methyl-1-(6-trifluoromethyl-pyridin-3-yl)-ethylamino]-5-phenyl-1-(4-trifluoromethoxy-phenyl)-pyrrolidin-2-one] | – | – | 72.7 | 4030 | –
